{
  "source": "patent US20140348897A1",
  "about": "“TREATMENT OR REDUCTION OF DENTAL CONDITIONS WITH ASCORBYL ESTERS” (HILL'S PET NUTRITION, INC., priority 2011, published 2014)",
  "key": {"dental plaque formation [1]": {"tested_on": "dental plaque formation", "experiment": "8-day GCPI dental plaque quantification model, feeding food coated with ascorbyl palmitate solution", "format": "in vivo, dogs", "settings": "four days", "procedure": "Ascorbyl palmitate was assessed for its ability to inhibit dental plaque formation when applied indirectly, i.e., by feeding animals a pet food composition as described. In this experiment, the 8-day GCPI dental plaques quantification model of […] et al. was used ([…] et al. (2007) J. Vet. Dent. 24(1): 14-20). The teeth of the test animals are cleaned at the beginning of the study, after which the animals were fed either a control food (a commercially-available canine pet food composition) or the same food upon which a solution of ascorbyl palmitate in soybean oil was sprayed to a final concentration (w/w) of 0.1% of the total weight of the food. The food coated with the ascorbyl palmitate solution was fed to dogs over a period of four days and dental plaque accumulation was quantified and compared with their dental plaque accumulation while on the control food. […] The GCPI uses a scale of 0-100%."}, "dental plaque formation [2]": {"tested_on": "dental plaque formation", "experiment": "24-hour plaque accumulation model, direct application to the teeth with a dental swab", "format": "in vivo, dog", "settings": "dogs", "procedure": "Ascorbyl palmitate was assessed for its ability to inhibit dental plaque in 24-hour plaque accumulation model, according to a modification of the method of […] et al. ([…] et al. (2007) J. Vet. Dent. 24(1): 14-20), in which the compound to be tested is directly applied to the teeth as a solution using a dental swab as applicator, and the dental plaque accumulation time was set at 24 hours. A solution of ascorbyl palmitate (0.3 g in 10 mL soybean oil) was administered to the cleaned buccal tooth and gingival surfaces of each dog using a dental swab, in such a manner that 0.3 g of ascorbyl palmitate was applied. Control animals were treated with soybean oil alone. Twenty-four hours after application, the accumulation of dental plaque was quantitatively evaluated using a standardized method designated as the gingival contour plaque index (“GCPI”). […] The GCPI uses a scale of 0-100%."}},
  "data": [
    {"smiles": "CCCCCCCCCCCCCCCC(=O)OC[C@H](O)[C@H]1OC(=O)C(O)=C1O", "note": "[ascorbyl palmitate]", "values": [
      {"measurement": "Plaque accumulation average score (GCPI)", "setting": "dental plaque formation [1]; dogs fed food sprayed with ascorbyl palmitate in soybean oil to 0.1% (w/w) of the food, GCPI scale 0-100%, control food 68.2±11.9", "result": "53.7±12.1", "unit": "%"},
      {"measurement": "improvement in plaque accumulation versus control food", "setting": "dental plaque formation [1]; dogs, food with 0.1% (w/w) ascorbyl palmitate", "result": 21.3, "unit": "%"},
      {"measurement": "improvement in plaque accumulation versus soybean oil control", "setting": "dental plaque formation [2]; 0.3 g applied directly, 24 hours", "result": 27.8, "unit": "%"},
      {"measurement": "Plaque accumulation average score (GCPI)", "setting": "dental plaque formation [2]; 0.3 g in 10 mL soybean oil applied to cleaned buccal tooth and gingival surfaces, 24 hours after application, GCPI scale 0-100%, soybean oil control 24.9±9.4", "result": "18.9±9", "unit": "%"}
    ]}
  ]
}
